According to BindingDB's records for patent US20240140962 (Medshine Discovery, 2024):

Biological target: Serine/threonine-protein kinase PLK1 (Homo sapiens, UniProt P53350)
Assay: Evaluation of PLK1 Kinase Activity In Vitro
Procedure: The 33P isotope-labeled kinase activity assay (Reaction Biology Corp) was used to determine the IC50 value to evaluate the inhibitory ability of the test compound to human PLK1 protein kinase.Buffer conditions: 20 mM HEPES (pH 7.5), 10 mM MgCl2, 1 mM EGTA, 0.01% Brij35, 0.02 mg/ml BSA, 0.1 mM Na3VO4, 2 mM DTT, 1% DMSOTest steps: At room temperature, the compounds to be tested were dissolved in DMSO to prepare a 10 mM solution for use. The substrate Casein was dissolved in a freshly prepared buffer (with a final concentration of 20 μM), and the tested PLK1 kinase (with a final concentration of 12 nM) was added thereto and mixed well. The acoustic wave pipetting system Echo 550 was used to add the mother solution of the test compound dissolved in DMSO to the above mixed reaction mixture according to the set final concentration gradient (the highest final concentration was 1 μM, 3-fold dilution, 10 gradients). After incubation at room temperature for 20 minutes, 33P-ATP (30 μM) was added, and after incubation at room temperature for 120 minutes, the reaction mixture was spotted on P81 ion exchange filter paper (Whatman #3698-915). After the filter paper was repeatedly washed with 0.75% phosphoric acid solution, the radioactivity of the phosphorylated substrate remaining on the filter paper was measured.

Sequence of Serine/threonine-protein kinase PLK1 (P53350 whole entry): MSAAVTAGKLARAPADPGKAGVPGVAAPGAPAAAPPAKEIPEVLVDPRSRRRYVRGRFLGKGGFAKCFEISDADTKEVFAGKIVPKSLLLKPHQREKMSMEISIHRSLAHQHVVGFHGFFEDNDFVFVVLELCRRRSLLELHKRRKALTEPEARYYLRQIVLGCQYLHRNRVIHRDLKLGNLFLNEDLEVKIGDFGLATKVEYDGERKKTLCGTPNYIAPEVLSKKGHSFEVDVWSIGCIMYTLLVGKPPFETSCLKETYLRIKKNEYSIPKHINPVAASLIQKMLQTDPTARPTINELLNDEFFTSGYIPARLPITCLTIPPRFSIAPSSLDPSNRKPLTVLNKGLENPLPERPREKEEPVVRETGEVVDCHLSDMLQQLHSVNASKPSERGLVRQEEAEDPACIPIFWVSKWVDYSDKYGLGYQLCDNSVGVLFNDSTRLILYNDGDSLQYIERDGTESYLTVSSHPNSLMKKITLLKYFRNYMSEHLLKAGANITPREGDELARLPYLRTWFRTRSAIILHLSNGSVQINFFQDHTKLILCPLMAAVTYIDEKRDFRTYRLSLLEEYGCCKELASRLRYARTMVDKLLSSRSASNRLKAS

Structure (SMILES) | IC50
CSc1sc(C(N)=O)c2c1-c1nc(Nc3cc(N4CCN(C)CC4)ccc3OC(F)(F)F)ncc1CC2 [US20240140962, Compound 1] | 4.4 nM
CSc1sc(C(N)=O)c2c1-c1nc(Nc3cc(N4CCN(CCO)CC4)ccc3OC(F)(F)F)ncc1CC2 [US20240140962, Compound 8] | 1.7 nM
CSc1sc(C(N)=O)c2c1-c1nc(Nc3cc(N4CCNCC4)ccc3OC(F)(F)F)ncc1CC2 [US20240140962, Compound 7] | 3 nM
CCOc1sc(C(N)=O)c2c1-c1nc(Nc3cc(N4CCN(C)CC4)ccc3OC(F)(F)F)ncc1CC2 [US20240140962, Compound 2] | 4.2 nM

Next, values leading:

IC50 | Structure (SMILES)
4 nM | CN1CCN(c2ccc(OC(F)(F)F)c(Nc3ncc4c(n3)-c3csc(C(N)=O)c3CC4)c2)CC1 [US20240140962, Compound 12]
2.8 nM | CN1CCN(c2ccc(OC(F)(F)F)c(Nc3ncc4c(n3)-c3c(-c5ccco5)sc(C(N)=O)c3CC4)c2)CC1 [US20240140962, Compound 20]
5.9 nM | COc1nnc(N2CCN(C)CC2)cc1Nc1ncc2c(n1)-c1c(SC)sc(C(N)=O)c1CC2 [US20240140962, Compound 17]
5.3 nM | CN1CCN(c2ccc(OC(F)(F)F)c(Nc3ncc4c(n3)-c3c(C5CC5)sc(C(N)=O)c3CC4)c2)CC1 [US20240140962, Compound 16]
